# Results taken from US12351634B2, “Use of cilengitide for ameliorating cardiac fibrosis occurring in response to myocardial infarction” (priority 2018, dated 2025).
# Key:
# [1] = system: FACS-isolated cardiac PW1+ cells; assay: Pharmacological inhibition of PW1+ cells in vitro, Q-PCR on fibrosis markers; assay type: cell-based, mouse; details: cilengitide 300 nM, 1000 nM vs vehicle, treated for 48 h
# Experimental: Animals were injected with heparin (100 UI/25 g) before euthanasia. The right atrium was carefully nicked with surgical scissors and the heart was perfused with 10 mL of PBS (Gibco) through the right ventricle to remove the blood. After collecting the heart, the atria were trimmed away and the ventricles were finely sliced (0.5-1 mm^3). Cardiac cells were dissociated at 37° C. for 30 min by enzymatic digestion with 480 U/mL collagenase II (Worthington) in DPBS (GIBCO). The digestion was stopped with DMEM (Life Technologies) supplemented into 10% FBS (Sigma) and 1% penicillin/streptomycin (P/S; Life Technologies) and the cell suspension was filtered through 100 μm Falcon cell strainer before centrifugation at 416 g for 10 min at 4° C. The cell pellet was re-suspended in 500 μL of Red Blood Cell Lysing (RBCL) Buffer to lyse red blood cells at RT for 30 sec. DPBS was added before 10 min centrifugation in same conditions as above. The cell pellet was then re-suspended in 300 μL of HBSS (Gibco) containing 1% FBS (HBSS-1% FBS) to perform immunostaining for 45 min on ice in dark. The list of antibodies used is reported in supplemental table 1. After incubation, HBSS-1% FBS was added and cells centrifuged at 416 g for 10 min at 4° C. to perform PW1+ cells staining. For this, 300 μL of HBSS-1% FBS containing 60 μM of 5-Dodecanoylaminofluorescein Di-β-D-Galactopyranoside (C12FDG, ThermoFisher Scientific) a substrate for β-gal detection by flow cytometry was added on cells then incubated in dark at 37° C. for 1 h under constant agitation. Reaction was stopped by the addition of HBSS-1% FBS. After cell centrifugation, the pellet was re-suspended in 200 μL of HBSS-1% FBS, the viability dye propidium iodide (Sigma) was added and the samples were filtered through a 50 μm Filcon (BD bioscience) just before the analysis.
# FACS sorted PW1^+ or PW1^− cells were plated at the density of 25 000 cell per cm^2 in culture plates coated with attachment factor (ThermoFisher Scientific). Cells were left to adhere overnight with 0.5 mL of growth medium (DMEM 10% FBS 1% P/S). The culture medium was changed the day after. At day 5, culture media was changed and supplemented with 0, 300 nM, or 1 μM of cilengitide. At day 6, medium was removed, and cells were washed twice with PBS. Cells were then lysed and RNA extracted followed by an RT-PCR. A Q-PCR was finally performed on selected fibrosis markers.
# To test this hypothesis, we first investigated whether CD51 pharmacological inhibition affects the expression of profibrotic genes in freshly FACS-isolated cardiac PW1^+ cells. These cells were seeded and cultured for 4 days and then treated for 48 h with growing concentrations of cilengitide or vehicle. […]
# [2] = system: cardiac PW1+ cells in PW1nLacZ-reporter mouse post-MI hearts; assay: Short-term lineage tracing of cardiac PW1+ cells in post-MI heart sections; assay type: in vivo; details: cardiac sections of post-MI (7 days) hearts, vs vehicle
# Experimental: Male 8 weeks-old C57BL/6 or PW1-reporter (PW1^nLacZ) mice were anesthetized in an induction chamber with 2% isoflurane mixed with 1.0 L/min 100% 02 and placed on a supine position on a heating pad to maintain body temperature. The mice were intubated with endotracheal tube and then connected to a rodent ventilator (180 breaths/min and a tidal volume of 200 μl). During surgical procedure anesthesia is maintained at 1.5-2% isoflurane with O2. The chest was accessed from the left side through the intercostal space and the pericardium incised. The left anterior descending coronary artery (LAD) was exposed and encircled with a 8.0 prolene suture at the apex of the left ventricle. The suture was briefly snared to confirm the ligation by blanching the arterial region. Mice were analyzed 7 days after LAD permanent ligation.
# Male C57BL/6J mice (Janvier labs) or PW1-reporter (PW1^nLacZ) mice received Cilengitide at 10 mg/kg/day (Adooq bioscience, ref: A12372) or vehicle i.p. for 14 days. LAD surgery was performed 7 days after starting cilengitide or vehicle administration. Mice were divided in 4 groups: MI-CIL (Cilengitide), MI-Veh (vehicle), Ctrl-CIL and Ctrl-Veh. […]
# [3] = system: integrin αV, including αVβ1, αVβ3 and αVβ5; details: cited from earlier work
# [4] = system: mice subjected to MI via a complete LAD ligation; assay: Myocardial infarction by LAD ligation, cilengitide vs vehicle; assay type: in vivo, mouse
# Experimental: Male C57BL/6J mice (Janvier labs) or PW1-reporter (PW1^nLacZ) mice received Cilengitide at 10 mg/kg/day (Adooq bioscience, ref: A12372) or vehicle i.p. for 14 days. LAD surgery was performed 7 days after starting cilengitide or vehicle administration. Mice were divided in 4 groups: MI-CIL (Cilengitide), MI-Veh (vehicle), Ctrl-CIL and Ctrl-Veh. At Day 14, animals were euthanatized and hearts were carefully collected, incubated for 2 h at 4° C. in 4% Formaldehyde solution (Ted Pella) then 24 h in 30% sucrose/PBS solution before OCT embedding and frozen in liquid nitrogen vapours. Echocardiographic measurements were taken at days 0 and 7 to assess cardiac function.
# When comparing more than 2 groups, quantitative data were analyzed using one-way ANOVA and pair wise comparisons with Tukey's test for multiple comparisons. The Mann Whitney U test was used for comparing continuous variables between 2 groups. A log rank (Mantel-Cox) test was used to compare survival between groups. P-values <0.05 were considered significant.
# Mice were pre-treated for 7 days with cilengitide or vehicle and were then subjected to MI via a complete LAD ligation. The mice were further daily treated with cilengitide or vehicle for additional 7 days before final evaluation of cardiac function and remodeling (FIG. 1a).
# [5] = sham animals (no MI), cilengitide 10 mg/kg/day i.p., data not shown
compound,measurement,setting,value
"CC(C)[C@H]1C(=O)N[C@@H](CCCN=C(N)N)C(=O)NCC(=O)N[C@@H](CC(=O)O)C(=O)N[C@H](Cc2ccccc2)C(=O)N1C [cilengitide, 2-[(2S,5R,8S,11S)-5-benzyl-11-{3-[(diaminomethylidene)amino]propyl}-7-methyl-3,6,9,12,15-pentaoxo-8-(propan-2-yl)-1,4,7,10,13-pentaazacyclopentadecan-2-yl]acetic acid]",Colla1 expression,[1],not affected
same,aSma (or Acta2) expression,[1],significant down-regulation
same,mmp2 expression,[1],significant down-regulation
same,tgfrb1 expression,[1],significant down-regulation
same,number of β-gal+ cells that did not express vimentin,[2]; p<0.001,significant increase
same,proportion of cells co-expressing β-gal and vimentin,[2]; p<0.05,significant reduction
same,inhibiting activity against the integrin αV,[3],strong inhibiting activity
same,survival,"[4]; 7 days after MI, cilengitide 10 mg/kg/day i.p. for 14 days, started 7 days before LAD ligation, vs vehicle, p<0.05 log-rank",significant improvement
same,cardiac function as measured by left ventricular ejection fraction,"[4]; 7 days after MI, cilengitide 10 mg/kg/day i.p., vs vehicle",significant increase
same,infarct size,"[4]; 7 days after MI, masson trichrome, digital image quantification, 10 mg/kg/day i.p., vehicle 56.8±14.9%, p=0.0008",38.8±7.9%
same,interstitial fibrosis measured in the remote myocardial area,"[4]; 7 days after MI, picrosirius red, 10 mg/kg/day i.p., vehicle 36.8±13.1%, p<0.0001",15.9±10.4%
same,cardiac rupture (adverse outcome),[4]; post-MI mice under cilengitide treatment,did not observe
same,cardiac fibrosis in sham animals,[4]; [5],not associated with any changes
same,cardiac function in sham animals,[4]; [5],not associated with any changes
same,survival in sham animals,[4]; [5],not associated with any changes
